Values quoted from earlier work as cited in US6686317B2, “Supported fluridone compositions and methods” (SePro Corporation, priority 2001, dated 2004).
Where two headings read alike, the source gives them in different places.

Tested on: aquatic plants

For “1-methyl-3-phenyl-5-3-(trifluoromethyl)phenyl-4(1H)-pyridinone [fluridone]”, the “concentration to which plant species are usually susceptible” value (other species susceptible only to higher concentrations) is listed as 150 ppb and the “concentration to which plant species are usually susceptible” value (some (more susceptible) species, as low as) is listed as “about 5 ppb”.
